Data published in patent US8133851B2, “Heteroaroyl-substituted serine amides” (BASF SE, priority 2007, dated 2012).

CNC(=O)C(NC(=O)c1cn(C)nc1C(F)(F)F)C1(OC(=O)N(C)C)CCC1 (stereo not shown) [Example 1, Dimethylcarbamic acid 1-{methylcarbamoyl-[(1-methyl-3-trifluoromethyl-1H-pyrazole-4-carbonyl)amino]methyl}cyclobutyl ester]
melting point: 190 °C
